Measured values: patent US12071443B2, “Prolyl hydroxylase domain-containing protein (PHD) inhibitors and uses thereof” (Insilico Medicine IP Limited, priority 2021, dated 2024)

Tests used:
PHD2 = PHD2 (Homo sapiens, UniProt Q9GZT9); assay: PHD2 enzymatic assay (AlphaScreen); format: biochemical; details: PHD2 enzyme, AlphaScreen, IC50 from % inhibition; read-out: PHD2
[1] = tested on: Caco2-HIF1α-HiBiT-clone-1 cells; assay: Caco-2 HIF1α-HiBiT assay; format: cell-based; details: Homo sapiens, Caco-2; Caco2-HIF1α-HiBiT-clone-1 cells, 6 h incubation, luminescence; read-out: Caco2-HIF1α-HiBit assay - EC50

Chain of PHD2 (Q9GZT9 whole entry): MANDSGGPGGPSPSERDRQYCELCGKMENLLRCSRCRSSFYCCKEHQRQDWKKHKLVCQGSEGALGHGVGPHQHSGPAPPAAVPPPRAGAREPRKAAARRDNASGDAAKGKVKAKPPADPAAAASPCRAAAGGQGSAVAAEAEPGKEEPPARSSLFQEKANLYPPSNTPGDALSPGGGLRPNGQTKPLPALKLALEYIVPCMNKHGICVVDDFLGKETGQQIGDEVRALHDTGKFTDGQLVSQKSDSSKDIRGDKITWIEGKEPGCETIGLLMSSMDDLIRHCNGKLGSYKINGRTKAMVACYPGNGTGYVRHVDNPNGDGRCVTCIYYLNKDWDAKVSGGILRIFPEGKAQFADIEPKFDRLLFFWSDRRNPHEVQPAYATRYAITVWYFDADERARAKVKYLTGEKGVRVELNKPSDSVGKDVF

In the case of N#Cc1ccc(CNC(=O)c2ncc3nc(N4CCN(C5CC5)CC4)ccc3c2O)c(Cl)c1 [Example 4], the IC50 (PHD2) is reported as 0.005 to 0.02 µM and the EC50 [1] is reported as 10 to 100 µM.

For N#Cc1ccc(CNC(=O)c2ncc3nc(N4CCNCC4)ccc3c2O)c(Cl)c1 [Example 5, N-(2-chloro-4-cyanobenzyl)-5-hydroxy-2-(piperazin-1-yl)-1,7-naphthyridine-6-carboxamide], the IC50 (PHD2) was 0.005 to 0.02 µM and the EC50 [1] was 7.5 to 10 µM.

Compound N#Cc1ccc(CNC(=O)c2ncc3nc(N4CC[C@@H](O)C4)ccc3c2O)c(Cl)c1 [Example 6, (R)—N-(2-chloro-4-cyanobenzyl)-5-hydroxy-2-(3-hydroxypyrrolidin-1-yl)-1,7-naphthyridine-6-carboxamide] has an IC50 (PHD2) of 0.005 to 0.02 µM and an EC50 [1] of 2.5 to 5 µM.

N#Cc1ccc(COC(=O)c2ncc3nc(N4CC[C@@H](O)C4)ccc3c2O)cn1 [Example 15, (6-cyanopyridin-3-yl)methyl (R)-5-hydroxy-2-(3-hydroxypyrrolidin-1-yl)-1,7-naphthyridine-6-carboxylate] showed an IC50 (PHD2) of 1 to 100 µM and an EC50 [1] of 10 to 100 µM.

For CP1(=O)CCN(c2ccc3c(O)c(C(=O)NCc4ccc(C#N)cc4Cl)ncc3n2)CC1 [Example 16], the IC50 (PHD2) was < 0.005 µM and the EC50 [1] was 10 to 100 µM.

C[C@H](NC(=O)c1ncc2nc(N3CCOCC3)ccc2c1O)c1ccc(C#N)cc1 [Example 17] showed an IC50 (PHD2) of 1 to 100 µM and an EC50 [1] of 10 to 100 µM.

C[C@@H](NC(=O)c1ncc2nc(N3CCOCC3)ccc2c1O)c1ccc(C#N)cc1 [Example 18] showed an IC50 (PHD2) of 0.005 to 0.02 µM and an EC50 [1] of 5 to 7.5 µM.

CN1CCN(c2ccc3c(O)c(C(=O)NCc4ccc(C#N)cc4Cl)ncc3n2)CC1=O [Example 19] showed an IC50 (PHD2) of 0.005 to 0.02 µM and an EC50 [1] of 10 to 100 µM.

With Cc1cc(C#N)ncc1CNC(=O)c1ncc2nc(N3CCOCC3)ccc2c1O [Example 20] the IC50 (PHD2) was < 0.005 µM and the EC50 [1] was 2.5 to 5 µM.

Work on CC(NC(=O)c1ncc2nc(N3CCOCC3)ccc2c1O)c1ccc(C#N)nc1 (stereo not drawn) [Example 21] yielded an IC50 (PHD2) of 0.02 to 0.1 µM and an EC50 [1] of 10 to 100 µM.

With N#Cc1ncc(CNC(=O)c2ncc3nc(N4CCOCC4)ccc3c2O)cn1 [Example 23] the IC50 (PHD2) was < 0.005 µM and the EC50 [1] was 5 to 7.5 µM.

CO[C@@H]1CCN(c2ccc3c(O)c(C(=O)NCc4ccc(C#N)nc4)ncc3n2)C1 [Example 27] was tested, and the IC50 (PHD2) was < 0.005 µM and the EC50 [1] was < 2.5 µM.

In the case of CC(C)(C)OC(=O)N1CCN(c2ccc3c(O)c(C(=O)NCc4ccc(C#N)nc4)ncc3n2)CC1 [Example 29, tert-butyl 4-(6-(((6-cyanopyridin-3-yl)methyl)carbamoyl)-5-hydroxy-1,7-naphthyridin-2-yl)piperazine-1-carboxylate], the IC50 (PHD2) is reported as < 0.005 µM and the EC50 [1] is reported as < 2.5 µM.

Compound N#Cc1ccc(CNC(=O)c2ncc3nc(N4CCOCC4)ncc3c2O)cn1 [Example 31] has an EC50 [1] of 10 to 100 µM.

With COc1cc(C#N)ncc1CNC(=O)c1ncc2nc(N3CCOCC3)ccc2c1O [Example 32] the IC50 (PHD2) was < 0.005 µM and the EC50 [1] was 10 to 100 µM.

With N#Cc1cnc(CNC(=O)c2ncc3nc(N4CCOCC4)ccc3c2O)cn1 [Example 33] the EC50 [1] was 5 to 7.5 µM.

For N#Cc1ccc(CNC(=O)c2ncc3nc(N4CC[C@H](C(=O)N5CCNCC5)C4)ccc3c2O)cn1 [Example 41, (S)—N-((6-cyanopyridin-3-yl)methyl)-5-hydroxy-2-(3-(piperazine-1-carbonyl)pyrrolidin-1-yl)-1,7-naphthyridine-6-carboxamide], the IC50 (PHD2) was < 0.005 µM and the EC50 [1] was 10 to 100 µM.

With N#Cc1ccc(CNC(=O)c2ncc3nc(N4CC[C@@H](CO)C4)ccc3c2O)cn1 [Example 42] the IC50 (PHD2) was < 0.005 µM and the EC50 [1] was 2.5 to 5 µM.

In the case of CN1CCN(c2ccc3c(O)c(C(=O)NCc4ccc(C#N)nc4)ncc3n2)C[C@@H]1CO [Example 45, (R)—N-((6-cyanopyridin-3-yl)methyl)-5-hydroxy-2-(3-(hydroxymethyl)-4-methylpiperazin-1-yl)-1,7-naphthyridine-6-carboxamide], the IC50 (PHD2) is reported as < 0.005 µM and the EC50 [1] is reported as 10 to 100 µM.

In the case of CC(=O)N1CCN(c2ccc3c(O)c(C(=O)NCc4ccc(C#N)nc4)ncc3n2)C[C@@H]1CO [Example 46, (R)-2-(4-acetyl-3-(hydroxymethyl)piperazin-1-yl)-N-((6-cyanopyridin-3-yl)methyl)-5-hydroxy-1,7-naphthyridine-6-carboxamide], the IC50 (PHD2) is reported as < 0.005 µM and the EC50 [1] is reported as 10 to 100 µM.

For CC(C)(C)OC(=O)N1CCN(c2ccc3c(O)c(C(=O)NCc4ccc(C#N)nc4)ncc3n2)C[C@@H]1CO [Example 47], the IC50 (PHD2) was < 0.005 µM and the EC50 [1] was < 2.5 µM.

COC(=O)[C@H]1CN(c2ccc3c(O)c(C(=O)NCc4ccc(C#N)nc4)ncc3n2)CCN1 [Example 50, methyl (R)-4-(6-(((6-cyanopyridin-3-yl)methyl)carbamoyl)-5-hydroxy-1,7-naphthyridin-2-yl)piperazine-2-carboxylate] was tested, and the IC50 (PHD2) was < 0.005 µM and the EC50 [1] was 10 to 100 µM.

For N#Cc1ccc(CNC(=O)c2ncc3nc(N4CCN[C@@H](C(=O)O)C4)ccc3c2O)cn1 [Example 51, (R)-4-(6-(((6-cyanopyridin-3-yl)methyl)carbamoyl)-5-hydroxy-1,7-naphthyridin-2-yl)piperazine-2-carboxylic acid], the IC50 (PHD2) was < 0.005 µM and the EC50 [1] was 10 to 100 µM.

In the case of CN1CCN(c2ccc3c(O)c(C(=O)NCc4ccc(C#N)cc4Cl)ncc3n2)C[C@@H]1CO [Example 59, (R)—N-(2-chloro-4-cyanobenzyl)-5-hydroxy-2-(3-(hydroxymethyl)-4-methylpiperazin-1-yl)-1,7-naphthyridine-6-carboxamide], the IC50 (PHD2) is reported as < 0.005 µM and the EC50 [1] is reported as 2.5 to 5 µM.

In the case of N#Cc1ccc(CNC(=O)c2ncc3nc(N4CCN[C@@H](CO)C4)ccc3c2O)c(Cl)c1 [Example 60, (R)—N-(2-chloro-4-cyanobenzyl)-5-hydroxy-2-(3-(hydroxymethyl)piperazin-1-yl)-1,7-naphthyridine-6-carboxamide], the IC50 (PHD2) is reported as 0.005 to 0.02 µM and the EC50 [1] is reported as 10 to 100 µM.

CC(=O)N1CCN(c2ccc3c(O)c(C(=O)NCc4ccc(C#N)cc4Cl)ncc3n2)C[C@@H]1CO [Example 63, (R)-2-(4-acetyl-3-(hydroxymethyl)piperazin-1-yl)-N-(2-chloro-4-cyanobenzyl)-5-hydroxy-1,7-naphthyridine-6-carboxamide] showed an IC50 (PHD2) of 0.005 to 0.02 µM and an EC50 [1] of 7.5 to 10 µM.

Compound N#Cc1ccc([C@@H](CO)NC(=O)c2ncc3nc(N4CCOCC4)ccc3c2O)cn1 [Example 64] has an IC50 (PHD2) of 0.1 to 1 µM and an EC50 [1] of 10 to 100 µM.

For CN1CCN(c2ccc3c(O)c(C(=O)NCc4ccc(C#N)nc4)ncc3n2)CC1=O [Example 66], the IC50 (PHD2) was < 0.005 µM and the EC50 [1] was 10 to 100 µM.

For N#Cc1ccc(CNC(=O)c2ncc3nc(N4CCN(C5CC5)[C@@H](CO)C4)ccc3c2O)c(Cl)c1 [Example 70], the IC50 (PHD2) was 0.005 to 0.02 µM and the EC50 [1] was 2.5 to 5 µM.

N#Cc1ccc(CNC(=O)c2ncc3nc(N4CCN(C5CC5)[C@H](CO)C4)ccc3c2O)c(Cl)c1 [Example 71] showed an IC50 (PHD2) of 0.005 to 0.02 µM and an EC50 [1] of 2.5 to 5 µM.

N#Cc1ccc(CNC(=O)c2ncc3nc(N4CCN(C(=O)CCO)CC4)ccc3c2O)cn1 [Example 72, N-((6-cyanopyridin-3-yl)methyl)-5-hydroxy-2-(4-(3-hydroxypropanoyl)piperazin-1-yl)-1,7-naphthyridine-6-carboxamide] was tested, and the IC50 (PHD2) was < 0.005 µM and the EC50 [1] was 5 to 7.5 µM.

With COCCC(=O)N1CCN(c2ccc3c(O)c(C(=O)NCc4ccc(C#N)nc4)ncc3n2)CC1 [Example 73, N-((6-cyanopyridin-3-yl)methyl)-5-hydroxy-2-(4-(3-methoxypropanoyl)piperazin-1-yl)-1,7-naphthyridine-6-carboxamide] the IC50 (PHD2) was < 0.005 µM and the EC50 [1] was 5 to 7.5 µM.

With N#Cc1ccc(CNC(=O)c2ncc3nc(N4CCN(CCO)CC4)ccc3c2O)cn1 [Example 74] the IC50 (PHD2) was < 0.005 µM and the EC50 [1] was 2.5 to 5 µM.

With COCCN1CCN(c2ccc3c(O)c(C(=O)NCc4ccc(C#N)nc4)ncc3n2)CC1 [Example 75] the IC50 (PHD2) was < 0.005 µM and the EC50 [1] was 5 to 7.5 µM.

In the case of COC(=O)C1CN(c2ccc3c(O)c(C(=O)NCc4ccc(C#N)nc4)ncc3n2)C1 [Example 84], the IC50 (PHD2) is reported as < 0.005 µM and the EC50 [1] is reported as 5 to 7.5 µM.

In the case of N#Cc1ccc(CNC(=O)c2ncc3nc(N4CCOC(=O)C4)ccc3c2O)cn1 [Example 85, N-((6-cyanopyridin-3-yl)methyl)-5-hydroxy-2-(2-oxomorpholino)-1,7-naphthyridine-6-carboxamide], the IC50 (PHD2) is reported as < 0.005 µM and the EC50 [1] is reported as 10 to 100 µM.

COCCOC(=O)C1CCN(c2ccc3c(O)c(C(=O)NCc4ccc(C#N)nc4)ncc3n2)CC1 [Example 86] was tested, and the IC50 (PHD2) was < 0.005 µM and the EC50 [1] was 10 to 100 µM.

For COC(=O)[C@H]1CN(c2ccc3c(O)c(C(=O)NCc4ccc(C#N)nc4)ncc3n2)CCN1C1CC1 [Example 89], the IC50 (PHD2) was < 0.005 µM and the EC50 [1] was 2.5 to 5 µM.

COC(=O)[C@H]1CN(c2ccc3c(O)c(C(=O)NCc4ccc(C#N)nc4)ncc3n2)CCO1 [Example 92] was tested, and the IC50 (PHD2) was < 0.005 µM and the EC50 [1] was 5 to 7.5 µM.

For N#Cc1ccc(CNC(=O)c2ncc3nc(N4CCNCC4=O)ccc3c2O)cn1 [Example 102, N-((6-cyanopyridin-3-yl)methyl)-5-hydroxy-2-(2-oxopiperazin-1-yl)-1,7-naphthyridine-6-carboxamide], the IC50 (PHD2) was 0.1 to 1 µM.

In the case of CC(C)(C)OC(=O)N1CCN(c2ccc3c(O)c(C(=O)NCc4cnc(C#N)cn4)ncc3n2)CC1 [Example 134, tert-butyl 4-(6-(((5-cyanopyrazin-2-yl)methyl)carbamoyl)-5-hydroxy-1,7-naphthyridin-2-yl)piperazine-1-carboxylate], the EC50 [1] is reported as 10 to 100 µM.

For Cc1cc(C#N)ncc1CNC(=O)c1ncc2nc(N3CCN(C(=O)OC(C)(C)C)CC3)ccc2c1O [Example 135], the EC50 [1] was < 2.5 µM.

In the case of CC[C@H]1CN(C(=O)OC(C)(C)C)CCN1c1ccc2c(O)c(C(=O)NCc3ccc(C#N)nc3)ncc2n1 [Example 151], the EC50 [1] is reported as 2.5 to 5 µM.

Compound CCOC(=O)CC1CN(c2ccc3c(O)c(C(=O)NCc4ccc(C#N)nc4)ncc3n2)C1 [Example 153] has an EC50 [1] of 2.5 to 5 µM.

In the case of CC(C)OC(=O)CC1CN(c2ccc3c(O)c(C(=O)NCc4ccc(C#N)nc4)ncc3n2)C1 [Example 154], the EC50 [1] is reported as < 2.5 µM.

CC1(C)CCN(c2ccc3c(O)c(C(=O)NCc4ccc(C#N)nc4)ncc3n2)CC1 [Example 155] showed an EC50 [1] of 7.5 to 10 µM.

For COc1c(C(=O)NCc2ccc(C#N)nc2)ncc2nc(N3CCOCC3)ccc12 [Example 163, N-((6-cyanopyridin-3-yl)methyl)-5-methoxy-2-morpholino-1,7-naphthyridine-6-carboxamide], the IC50 (PHD2) was 0.1 to 1 µM.
